Source: patent US10703764B2, “Benzopiperazine compositions as BET bromodomain inhibitors” (FORMA Therapeutics, Inc., priority 2013, dated 2020)
Where two headings read alike, the source gives them in different places.

What was measured:
MV4-11 cells = test: Oncology cell growth assay (3-day proliferation, CellTiter-Glo); type: cell-based; conditions: Homo sapiens, AML cell line MV4-11, 72 hours, compounds grouped by IC50 range, read-out: MV4-11 IC50 (inhibition of proliferation, gIC50)
Summary of the method: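 A 3-day proliferation test used MV4-11 cells seeded at 3000 per well with eight compound concentrations (10 μM top, 3-fold dilution) at 37° C in 5% CO2. CellTiter-Glo luminescence defined viable cell signal. A four-parameter logistic curve against DMSO and background wells gave the gIC50.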

BRD4 BD1 = target: T1, BRD4 BD1 (Homo sapiens, UniProt O60885); test: AlphaScreen binding assay, BRD4 Bromodomain 1
T1 construct: made in house
Summary of the method: (§1)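 An AlphaScreen competition format was used with His-BRD4 BD1 or BD2 and biotin-H4 K5/8/12/16-acetyl peptide, each at matched final levels of 50 nM (BD1) or 100 nM (BD2). Incubation in HEPES/NaCl buffer with 0.1% BSA and 0.01% Triton X-100 ran ≥1 h before IC50 determination.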

BRD4 BD2 = target: T2, BRD4 BD2 (Homo sapiens, UniProt O60885); test: AlphaScreen binding assay, BRD4 Bromodomain 2
T2 construct: made in house
Summary of the method: as §1

IC50 (MV4-11 cells; MV4-11, 72 h)	IC50 (BRD4 BD1)	IC50 (BRD4 BD2)	Structure (SMILES)	IC50 (MV4-11 cells)
100 to 500 nM	< 100 nM	< 50 nM	CC(=O)N1c2ccc(-c3cnn(C4COC4)c3)cc2N(C(=O)Oc2ccncc2)C[C@@H]1C [Example I-90, (S)-pyridin-4-yl 4-acetyl-3-methyl-7-(1-(oxetan-3-yl)-1H-pyrazol-4-yl)-3,4-dihydroquinoxaline-1(2H)-carboxylate]	
100 to 500 nM	< 100 nM	< 50 nM	CC(=O)N1c2ccc(-c3cnn(C4COC4)c3)cc2N(C(=O)Oc2ccccn2)C[C@@H]1C [Example I-91, (S)-pyridin-2-yl 4-acetyl-3-methyl-7-(1-(oxetan-3-yl)-1H-pyrazol-4-yl)-3,4-dihydroquinoxaline-1(2H)-carboxylate]	
< 100 nM	100 to 1000 nM	50 to 500 nM	CC(=O)N1c2ccc(-c3cnn(C4CC4)c3)cc2N(c2n[nH]c3ccccc23)C[C@@H]1C [Example I-93, (S)-1-(6-(1-cyclopropyl-1H-pyrazol-4-yl)-4-(1H-indazol-3-yl)-2-methyl-3,4-dihydroquinoxalin-1 (2H)-yl)ethan-1-one]	
< 100 nM	100 to 1000 nM	50 to 500 nM	CC(=O)N1c2ccc(-c3ccc(S(C)(=O)=O)cc3)cc2N(c2n[nH]c3ccccc23)C[C@@H]1C [Example I-94, (S)-1-(4-(1H-indazol-3-yl)-2-methyl-6-(4-(methylsulfonyl)phenyl)-3,4-dihydroquinoxalin-1 (2H)-yl)ethan-1-one]	
100 to 500 nM	100 to 1000 nM	50 to 500 nM	CC(=O)N1c2ccc(-c3cnn(C4CS(=O)(=O)C4)c3)cc2N(C(=O)OC2CCC2)C[C@@H]1C [Example I-98, cyclobutyl (3S)-4-acetyl-7-[1-(1,1-dioxo-1λ^6-thietan-3-yl)-1H-pyrazol-4-yl]-3-methyl-1,2,3,4-tetrahydroquinoxaline-1-carboxylate]	
> 500 nM	> 10000 nM	50 to 500 nM	CC(=O)N1c2ccc(-c3cnn(C4COC4)c3)cc2N(C(=O)C2(C)CC2)C[C@@H]1C [Example I-114, (S)-1-(2-methyl-4-(1-methylcyclopropanecarbonyl)-6-(1-(oxetan-3-yl)-1H-pyrazol-4-yl)-3,4-dihydroquinoxalin-1(2H)-yl)ethanone]	
100 to 500 nM	100 to 1000 nM	50 to 500 nM	CC(=O)N1c2ccc(-c3cnn(Cc4cnccn4)c3)cc2N(C(=O)OC(C)C)C[C@@H]1C [Example I-116, (S)-isopropyl 4-acetyl-3-methyl-7-(1-(pyrazin-2-ylmethyl)-1H-pyrazol-4-yl)-3,4-dihydroquinoxaline-1(2H)-carboxylate]	
100 to 500 nM	100 to 1000 nM	50 to 500 nM	CC(=O)N1c2ccc(-c3cnn(Cc4ccncc4)c3)cc2N(C(=O)OC(C)C)C[C@@H]1C [Example I-117, (S)-isopropyl 4-acetyl-3-methyl-7-(1-(pyridin-4-ylmethyl)-1H-pyrazol-4-yl)-3,4-dihydroquinoxaline-1(2H)-carboxylate]	
100 to 500 nM	100 to 1000 nM	< 50 nM	CC(=O)N1c2ccc(-c3cnn(Cc4cccnc4)c3)cc2N(C(=O)OC(C)C)C[C@@H]1C [Example I-119, (S)-isopropyl 4-acetyl-3-methyl-7-(1-(pyridin-3-ylmethyl)-1H-pyrazol-4-yl)-3,4-dihydroquinoxaline-1(2H)-carboxylate]	
100 to 500 nM	100 to 1000 nM	< 50 nM	CC(=O)N1c2ccc(-c3cnn(Cc4ccccn4)c3)cc2N(C(=O)OC(C)C)C[C@@H]1C [Example I-120, (S)-isopropyl 4-acetyl-3-methyl-7-(1-(pyridin-2-ylmethyl)-1H-pyrazol-4-yl)-3,4-dihydroquinoxaline-1(2H)-carboxylate]	
100 to 500 nM	100 to 1000 nM	< 50 nM	CC(=O)N1c2ccc(-c3cnn(Cc4ccccn4)c3)cc2N(C(=O)C2CC2)C[C@@H]1C [Example I-121, (S)-1-(4-(cyclopropanecarbonyl)-2-methyl-6-(1-(pyridin-2-ylmethyl)-1H-pyrazol-4-yl)-3,4-dihydroquinoxalin-1(2H)-yl)ethanone]	
100 to 500 nM	100 to 1000 nM	< 50 nM	CC(=O)N1c2ccc(-c3cnn(Cc4cccnc4)c3)cc2N(C(=O)C2CC2)C[C@@H]1C [Example I-122, (S)-1-(4-(cyclopropanecarbonyl)-2-methyl-6-(1-(pyridin-3-ylmethyl)-1H-pyrazol-4-yl)-3,4-dihydroquinoxalin-1(2H)-yl)ethan-1-one]	
> 500 nM	1000 to 10000 nM	50 to 500 nM	CC(=O)N1c2ccc(-c3cnn(Cc4cnccn4)c3)cc2N(C(=O)C2CC2)C[C@@H]1C [Example I-123, (S)-1-(4-(cyclopropanecarbonyl)-2-methyl-6-(1-(pyrazin-2-ylmethyl)-1H-pyrazol-4-yl)-3,4-dihydroquinoxalin-1(2H)-yl)ethanone]	
100 to 500 nM	1000 to 10000 nM	< 50 nM	CC(=O)N1c2ccc(-c3cnn(CC4(C)COC4)c3)cc2N(C(=O)C2CC2)C[C@@H]1C [Example I-124, (S)-1-(4-(cyclopropanecarbonyl)-2-methyl-6-(1-((3-methyloxetan-3-yl)methyl)-1H-pyrazol-4-yl)-3,4-dihydroquinoxalin-1(2H)-yl)ethanone]	
> 500 nM	1000 to 10000 nM	< 50 nM	CC(=O)N1c2ccc(-c3cnn(Cc4ncccn4)c3)cc2N(C(=O)C2CC2)C[C@@H]1C [Example I-126, (S)-1-(4-(cyclopropanecarbonyl)-2-methyl-6-(1-(pyrimidin-2-ylmethyl)-1H-pyrazol-4-yl)-3,4-dihydroquinoxalin-1(2H)-yl)ethanone]	
> 500 nM	100 to 1000 nM	< 50 nM	CC(=O)N1c2ccc(-c3cnn(Cc4c[nH]cn4)c3)cc2N(C(=O)C2CC2)C[C@@H]1C [Example I-127, (S)-1-(6-(1-((1H-imidazol-4-yl)methyl)-1H-pyrazol-4-yl)-4-(cyclopropanecarbonyl)-2-methyl-3,4-dihydroquinoxalin-1(2H)-yl)ethanone]	
100 to 500 nM	1000 to 10000 nM	< 50 nM	CC(=O)N1c2ccc(-c3cnn(Cc4cncnc4)c3)cc2N(C(=O)C2CC2)C[C@@H]1C [Example I-128, (S)-1-(4-(cyclopropanecarbonyl)-2-methyl-6-(1-(pyrimidin-5-ylmethyl)-1H-pyrazol-4-yl)-3,4-dihydroquinoxalin-1(2H)-yl)ethanone]	
100 to 500 nM	1000 to 10000 nM	50 to 500 nM	CC(=O)N1c2ccc(-c3cnn(CCN(C)C)c3)cc2N(C(=O)OC(C)C)C[C@@H]1C [Example I-129, (S)-isopropyl 4-acetyl-7-(1-(2-(dimethylamino)ethyl)-1H-pyrazol-4-yl)-3-methyl-3,4-dihydroquinoxaline-1(2H)-carboxylate]	
> 500 nM	100 to 1000 nM	50 to 500 nM	CC(=O)N1c2ccc(-c3cnn(CC(=O)O)c3)cc2N(C(=O)OC(C)C)C[C@@H]1C [Example I-130, (S)-2-(4-(1-acetyl-4-(isopropoxycarbonyl)-2-methyl-1,2,3,4-tetrahydroquinoxalin-6-yl)-1H-pyrazol-1-yl)acetic acid]	
100 to 500 nM	100 to 1000 nM	50 to 500 nM	CC(=O)N1c2ccc(-c3cnn(Cc4ccno4)c3)cc2N(C(=O)OC(C)C)C[C@@H]1C [Example I-131, (S)-isopropyl 4-acetyl-7-(1-(isoxazol-5-ylmethyl)-1H-pyrazol-4-yl)-3-methyl-3,4-dihydroquinoxaline-1(2H)-carboxylate]	
100 to 500 nM	100 to 1000 nM	50 to 500 nM	CC(=O)N1c2ccc(-c3cnn(CC4(F)COC4)c3)cc2N(C(=O)OC(C)C)C[C@@H]1C [Example I-133, (S)-isopropyl 4-acetyl-7-(1-((3-fluorooxetan-3-yl)methyl)-1H-pyrazol-4-yl)-3-methyl-3,4-dihydroquinoxaline-1(2H)-carboxylate]	
> 500 nM	100 to 1000 nM	50 to 500 nM	CNC(=O)Cn1cc(-c2ccc3c(c2)N(C(=O)OC(C)C)C[C@H](C)N3C(C)=O)cn1 [Example I-134, (S)-isopropyl 4-acetyl-3-methyl-7-(1-(2-(methylamino)-2-oxoethyl)-1H-pyrazol-4-yl)-3,4-dihydroquinoxaline-1(2H)-carboxylate]	
100 to 500 nM	100 to 1000 nM	50 to 500 nM	CC(=O)N1c2ccc(-c3cnn(CC(F)F)c3)cc2N(C(=O)OC(C)C)C[C@@H]1C [Example I-135, (S)-isopropyl 4-acetyl-7-(1-(2,2-difluoroethyl)-1H-pyrazol-4-yl)-3-methyl-3,4-dihydroquinoxaline-1(2H)-carboxylate]	

Structure (SMILES)	IC50 (MV4-11 cells; MV4-11, 72 h)	IC50 (BRD4 BD1)	IC50 (BRD4 BD2)	IC50 (MV4-11 cells)
CC(=O)N1c2ccc(-c3cnn(C4CC4)c3)cc2N(c2noc3ccccc23)C[C@@H]1C [Example I-95, (S)-1-(4-(benzo[d]isoxazol-3-yl)-6-(1-cyclopropyl-1H-pyrazol-4-yl)-2-methyl-3,4-dihydroquinoxalin-1(2H)-yl)ethanone]		< 100 nM	< 50 nM	100 to 500 nM
CC(=O)N1c2ccc(-c3ccc(C(=O)N4CCNCC4)cc3)cc2N(C(=O)Oc2ccccc2)C[C@@H]1C [Example I-99, phenyl (S)-4-acetyl-3-methyl-7-(4-(piperazine-1-carbonyl)phenyl)-3,4-dihydroquinoxaline-1(2H)-carboxylate]		< 100 nM	< 50 nM	< 100 nM
